The values that follow come from patent publication US9775832B2, “Pharmaceutical composition for oral administration” (ASTELLAS PHARMA INC., priority 2014, dated 2017).

For orientation: Solubility means the dissolved amount per volume that the medium holds. Usually Cmax stands for the peak of the concentration-time curve.

The structures appear in SMILES notation. Converted amounts (≈) assume the structure as drawn.

The nature of data set [1]: Measurement of solubility (Experimental Example 3). It is filed as physicochemical. The conditions noted are these: Phosphate buffer, room temperature, shaken 120 minutes. The source says: The improved solubility of compound A by amorphization was observed.
The nature of another data set: physchem. The conditions noted are these: thermodynamic from solid.
Data set [2] in a line: Powder X-ray diffraction test, crystallinity before and after storage (Experimental Example 5). It is filed as physicochemical. The conditions noted are these: at least 70° C. for 9 days, or 40° C., 75% RH for 1 month; FIG. 2. The method, then: The amorphous form of compound A of Example 2 was put into glass bottles, and the bottles were sealed and allowed to stand under the predetermined conditions, and the crystallinity before and after storage was evaluated using a powder X-ray diffraction method. In “40° C., 75% RH for 1 month (opened)”, the storage was carried out under the conditions where the bottle was not sealed.

Data set [3] in a line: Measurement of related substances by HPLC after storage in glass bottles (Experimental Example 4). The format is physicochemical. As for the experimental part:
The solid dispersion of Example 1 and the amorphous form of compound A of Example 2 were put into glass bottles, and the bottles were allowed to stand under the predetermined conditions, after being sealed or without being sealed, and the amount of each related substance of compound A was measured by an HPLC method.
The measurement of related substances was carried out in accordance with the following conditions (the following tests for related substances were carried out in a similar fashion.): • As a HPLC column, Unison UK-Phenyl (particle size=3 μm, 4.6 mm (inner diameter)×25 cm, manufactured by Imtakt), or its equivalent, was used, and maintained at 40° C. • As mobile phase A, a mixed solution (4:1) of a perchlorate solution (pH 4.0) and methanol was used. • As mobile phase B, acetonitrile was used. • Sample solutions were prepared by diluting samples with a mixed solution of mobile phase A/mobile phase B (7:3) so that the concentration of compound A became 250 μg/mL. • Related substances were measured using an ultraviolet absorption spectrophotometer (wavelength: 225 nm), in accordance with the gradient program shown in Table 3 below, and at a flow rate in which the retention time of compound A was about 26 minutes. The percentage of the peak area of each related substance was calculated, as a percentage with respect to the total peak area of compound A and its related substances.

A short description of data set [4]: Oral absorption test in dog (Experimental Example 6). The format is in vivo. The conditions noted are these: 50 mg of compound A. The method, then: The dogs were made to fast from the evening on the day before the administration (before more than 16 hours from the scheduled administration time) to the final blood collection on the day of the administration (24 hours after the administration). After the end of the final blood collection, food was given in accordance with the feeding amount of the breeding facility (the fasting period was from 24 hours or more to less than 48 hours). Water was not given during a time period from 30 minutes before the administration to 2 hours after the administration, and then, it was free to drink water.

Setting [5] is: glass bottle not sealed (*), 40° C., 75% RH for 1 month.
Setting [6] is: glass bottle, sealed, 25° C., 60% RH for 1 month.
Where [7] appears, read: glass bottle, sealed, 40° C., 75% RH for 1 month.
[8] abbreviates: glass bottle, sealed, 70° C. for 9 days.

In the case of `C[C@@H](O)C(=N)NS(=O)(=O)c1cc(C(=O)C(C(=O)c2cc(F)ccc2F)=C2Nc3ccccc3N2)ccc1F` [Compound A, (2R)—N-({5-[3-(2,5-difluorophenyl)-2-(1,3-dihydro-2H-benzimidazole-2-ylidene)-3-oxopropanoyl]-2-fluorophenyl}sulfonyl)-2-hydroxypropane imide amide], the Solubility in data set [1] (pH 6.8, 0.10% Sodium lauryl sulfate, listed as Compound A in crystalline state) was 0.069 mg/mL (≈ 127 µM); in data set [1] (pH 6.8, listed as Compound A in crystalline state) it was 0.015 mg/mL (≈ 27.5 µM); in the data set “physchem” (pH 1.2, simulated gastric fluid) it was about 9.9 µg/mL (≈ 18.2 µM); in the data set “physchem” (pH 6.8, aqueous buffer), about 9.8 µg/mL (≈ 18 µM).
Turning to `C[C@@H](O)C(=N)NS(=O)(=O)c1cc(C(=O)C(C(=O)c2cc(F)ccc2F)=C2Nc3ccccc3N2)ccc1F` [Example 2, (2R)—N-({5-[3-(2,5-difluorophenyl)-2-(1,3-dihydro-2H-benzimidazole-2-ylidene)-3-oxopropanoyl]-2-fluorophenyl}sulfonyl)-2-hydroxypropane imide amide], the “crystallinity after storage (powder X-ray diffraction)” value in data set [2] is “maintained the amorphous state alone”. For the same molecule, in data set [3] (At the beginning of storage), the Maximum related substance stood at 0.80% and the “Total amount of related substances” value turned out to be 0.88%. For the same molecule, in data set [3] (at least 70° C. for 9 days, 40° C., 75% RH for 1 month, or 25° C., 60% RH for 1 month), the “significant increase in related substances” value is reported as “not observed”. In data set [3] (setting [5]), the Maximum related substance is given as 0.77%; the “Maximum related substance, increased amount from the beginning of the storage” value is given as “(−0.03) %”; the “Total amount of related substances” value was 0.98%; the “Total amount of related substances, increased amount from the beginning of the storage” value was “(0.10) %”. In addition, in data set [3] (setting [6]), the Maximum related substance amounted to 0.79%; the “Maximum related substance, increased amount from the beginning of the storage” value is on record as “(−0.01) %”; the “Total amount of related substances” value is 0.99%; the “Total amount of related substances, increased amount from the beginning of the storage” value is “(0.11) %”. Further, in data set [3] (setting [7]), the Maximum related substance amounted to 0.79%; the “Maximum related substance, increased amount from the beginning of the storage” value is on record as “(−0.01) %”; the “Total amount of related substances” value is given as 0.99%; the “Total amount of related substances, increased amount from the beginning of the storage” value is on record as “(0.11) %”. Besides, in data set [3] (setting [8]), the Maximum related substance is given as 0.82%; the “Maximum related substance, increased amount from the beginning of the storage” value is reported as “(0.02) %”; the “Total amount of related substances” value amounted to 0.85%; the “Total amount of related substances, increased amount from the beginning of the storage” value is given as “(−0.03) %”. The Solubility in data set [1] (pH 6.8, 0.10% Sodium lauryl sulfate, listed as Ex. 2) was 0.326 mg/mL (≈ 599 µM). The molecule also gave a Solubility in data set [1] (pH 6.8, listed as Ex. 2) of 0.075 mg/mL (≈ 138 µM). Further, in data set [4], the “AUC0-24 h ratio to the suspension of Example 2” value is 1.00, the “Cmax ratio to the suspension of Example 2” value is given as 1.00 and the oral absorbability entry was “good oral absorbability”. In addition, the highest level in data set [4] (plasma, suspension in 0.5% methylcellulose) (Cmax) was 793 ± 165 ng/mL. In addition, the AUC(0-t) in data set [4] (plasma, suspension in 0.5% methylcellulose, read-out: AUC0-24 hr) was found to be 4920 ± 1220 ng·h/mL.
